According to patent publication US20260014227A1, “DESLORELIN USE IN CHEMICAL CASTRATION OF A NON-HUMAN MAMMAL RELATED TO PK/PD INTERACTION” (priority 2022, published 2026):
Where “and” joins values, the source holds several entries; their conditions need not be identical. Equal entries are not always repeated.

Legend:
[1] = system: intact male cats; assay: Testicular size by calipers (Example 7); type: in vivo, cat; settings: treated cats
[2] = system: male cats; assay: Cat field studies 1 and 2: suppression of fertility, reversibility, behaviour, safety (Example 12); type: in vivo
Source text: The efficacy and safety of the re-implantation was followed-up for these supplementary 12 months, i.e. for a total of 24 months.
The observation schedule was as follows: • Study 1: V1: Day −14 to −7; V2: Day 0; V3: 1.5 months±3 days; V4: 3 months±5 days, V5: 6 months±5 days, V6: 9 months±5 days; V7: 12 months #5 days; • Study 2: V8: 12 months±3 days; V9: 13.5 months±3 days; V10: 15 months±5 days; V11: 18 months±5 days; V12: 21 months±5 days; V13: 24 months±5 days.
Regarding the enrolment criteria, in both studies the criteria were as the following: • Domestic Cats • Age >3 MONTHS old or >15 MONTHS in Study 2 • Intact Indoor males • Client-owned (including shelter cats/rehomed by foster families)
In these studies the following primary endpoints were measured: • For Study 1: the suppression of fertility (Testosterone≤0.10 ng/ml* from V4 until V7*-3 to 12 months) • Study 2: the suppression of fertility (Testosterone≤0.10 ng/mL*from V8 until V13 (12 to 24 months) and the time to reversion effect. […]

[3] = system: testosterone, LH and FSH; assay: in vivo; type: in vivo, dog; settings: assessed graphically
[4] = in vivo; type: in vivo, dog; settings: male, dog, in vivo, 4.7 mg
[5] = in vivo
Experimental: Samples were collected from 10 intact male cats treated with Suprelorin® 4.7 implant. Samples (based on a plasma volume of 150 μL, treated with K2-EDTA as anticoagulant) were analyzed by a LC-MS/MS method after a solid extraction phase using μElution Oasis® WCX plates. The compound (13C, 15N)-Leu (7)-deslorelin was used as a standard. The calibration range was 4 pg/mL-2000 pg/mL.

[6] = in vivo; settings: male, dog, 4.7 mg
[7] = parameters: species or system cat; settings: in vivo
Experimental: • study period: D0-560 (18 months)· • n=20 adults, sexually mature intact male cats • blinded, randomized • Suprelorin® group: n=16=>4.7 mg Suprelorin® SC, neck • Control group: n=4=>0.5 ml saline SC, neck
Blood samples were collected from 16 healthy, intact male cats that had received a deslorelin implant. Samples were analyzed using a validated liquid chromatography coupled to tandem mass spectrometry (LC-MS/MS) method after solid extraction using Oasis® WCX uElution plate. […] Concentrations measured below the lower limit of quantification (LLOQ) of 4 pg/mL were reported as BLQ (Below the Limit of Quantification).
Non-compartmental pharmacokinetic analysis of individual deslorelin concentrations in feline plasma was performed using Phoenix® software (WinNonlin 8.0, NLME 1.6, Certara L. P., Pharsight, St. Louis, MO, USA) to estimate the pharmacokinetic parameters of deslorelin.

[8] = dog, in vivo
[9] = system: testosterone; assay: Correlation between deslorelin and testosterone concentration (Example 4); type: in vivo, cat; settings: 16 male cats, 4.7 mg implant; assessed graphically
Experimental: The serum concentration of testosterone was measured according to the protocol detailed in example 2, point 2.1.
The plasmatic concentration of deslorelin was measured according to the protocol detailed in example 1, point 1.1.

[10] = system: cat; assay: Safety study in cat, high dose; type: in vivo
[11] = system: male dogs; settings: cited from earlier work
[12] = system: prepubertal bitches; settings: cited from earlier work
[13] = system: prepubertal female dogs; assay: Delay of puberty onset in prepubertal female dogs (Example 14); type: in vivo, dog
Source text: The aim of this study was to evaluate the delay of puberty onset in prepubertal female dogs. As known the puberty begins with the setting up of several parameters: • Increasing number of receptors in central nervous system (CNS) and gonads • Desensitization of hypothalamus/pituitary towards estrogens • Ripening of the gonads and the secondary sexual organs • Follicle ripening, spermatogenesis

[14] = system: intact male cats; assay: PK/PD preclinical study in 15-week-old male cats: penile spines, behaviour, puberty, reversal (Example 13); type: in vivo, cat; settings: treated at 15 weeks of age
Source text: On D14, the three spare cats were removed from the study. Five+3 female cats (Group 3), pubescent at study start, were included in the study solely to assess the reproductive behavior of male cats. They were not treated with the implant. • Duration: 18 Study Months post-injection (PI) (D502/Week 72, i.e., 16.5 calendar months)

In the case of `CCNC(=O)[C@@H]1CCCN1C(=O)[C@H](CCCN=C(N)N)NC(=O)[C@H](CC(C)C)NC(=O)[C@@H](Cc1c[nH]c2ccccc12)NC(=O)[C@H](Cc1ccc(O)cc1)NC(=O)[C@H](CO)NC(=O)[C@H](Cc1c[nH]c2ccccc12)NC(=O)[C@H](Cc1cnc[nH]1)NC(=O)[C@@H]1CCC(=O)N1` [deslorelin], the “Effect on testicular volume” value [1] is reported as “induced a decrease in testicular volume”, the “Duration of effective chemical castration” value ([2]; male cats) is reported as “at least 12 months” and the “Onset of efficacy in behavioral reduction” value ([2]; sexual behaviors) is reported as 7 to 31 days. For the same compound, the “Deslorelin concentration below which testosterone/LH/FSH concentrations started to increase” value [3] was 12 pg/mL and < 12 pg/mL, the level at 5376 h [4] was 12 ± 10.4 pg/mL and the “Time deslorelin remains in the blood” value [5] was “up to 497 days”. For the same compound, the level at 10584 h [6] was 2 pg/mL, the “Time deslorelin remains present in the blood” value [7] was “up to 560 days” and the “Study day until which plasma deslorelin was quantifiable” value [8] was 441. The “Deslorelin concentration below which testosterone started to increase” value [9] was < 12 pg/mL, the Safety findings [10] was “neither serious adverse events nor live threatening events” and the Presence of deslorelin ([11]; dog, in vivo) was 2.5 months. For the same compound, the “Duration of observed effect” value ([11]; dogs) was “at least 6 months”, the “Persistent pharmacological effect by plasma testosterone” value ([11]; following administration) was “at least 12 months” and the Delay of puberty ([12]; prepubertal bitch) was “at least 4.5 months”. The “Progesterone (P4), mean” value ([12]; prepubertal bitches) was 0.6 ± 0.2 ng/mL, the “Findings in prepubertal female dogs” value ([13]; with 1 implant) was “no disturbance of body development, the vulva size was normal, but delayed epiphyseal closure” and the “Findings in prepubertal female dogs” value ([13]; with 3 implants every 4.5 Mo) was “vulva stayed juvenile and the effect was comparable to prepubertal castration”. For the same compound, the “Duration of delay of puberty onset” value [14] was “at least 1 year”.
